Results: the supplement of paper PMC11451515

Tested on: P12-Ichikawa
Assay: cell viability relative to DMSO control; higher = less cytotoxic
Settings: 48 h
Outline: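 In 1536-well plates, 5 μl of leukemia cells were seeded per well: 500 cells/well for NOMO1 or SEM and 1000 cells/well for P12-Ichikawa. Each line had first been adapted for at least four passages in each medium. Library compounds in DMSO were pin-dosed at 11 threefold concentrations between 47 μM and 0.79 nM, and CellTiter-Glo One luminescence was read after 48 h at 37°C. Viability is a per-plate percentage relative to DMSO wells, with cell-free wells as background.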

[1] = HPLM + 10% dialyzed FBS, 0.000781 µM
[2] = HPLM + 10% dialyzed FBS, 0.00234 µM
[3] = HPLM + 10% dialyzed FBS, 0.00702 µM
[4] = HPLM + 10% dialyzed FBS, 0.0211 µM
[5] = HPLM + 10% dialyzed FBS, 0.0632 µM
[6] = HPLM + 10% dialyzed FBS, 0.19 µM
[7] = HPLM + 10% dialyzed FBS, 0.569 µM
[8] = HPLM + 10% dialyzed FBS, 1.71 µM
[9] = HPLM + 10% dialyzed FBS, 5.12 µM
[10] = HPLM + 10% dialyzed FBS, 15.4 µM
[11] = HPLM + 10% dialyzed FBS, 46.1 µM
[12] = RPMI 5 mM glucose + 10% FBS, 0.000781 µM
[13] = RPMI 5 mM glucose + 10% FBS, 0.00234 µM
[14] = RPMI 5 mM glucose + 10% FBS, 0.00702 µM
[15] = RPMI 5 mM glucose + 10% FBS, 0.0211 µM
[16] = RPMI 5 mM glucose + 10% FBS, 0.0632 µM
[17] = RPMI 5 mM glucose + 10% FBS, 0.19 µM
[18] = RPMI 5 mM glucose + 10% FBS, 0.569 µM
[19] = RPMI 5 mM glucose + 10% FBS, 1.71 µM
[20] = RPMI 5 mM glucose + 10% FBS, 5.12 µM
[21] = RPMI 5 mM glucose + 10% FBS, 15.4 µM
[22] = RPMI 5 mM glucose + 10% FBS, 46.1 µM
[23] = RPMI 5 mM glucose + 10% dialyzed FBS, 0.000781 µM
[24] = RPMI 5 mM glucose + 10% dialyzed FBS, 0.00234 µM
[25] = RPMI 5 mM glucose + 10% dialyzed FBS, 0.00702 µM
[26] = RPMI 5 mM glucose + 10% dialyzed FBS, 0.0211 µM
[27] = RPMI 5 mM glucose + 10% dialyzed FBS, 0.0632 µM
[28] = RPMI 5 mM glucose + 10% dialyzed FBS, 0.19 µM
[29] = RPMI 5 mM glucose + 10% dialyzed FBS, 0.569 µM
[30] = RPMI 5 mM glucose + 10% dialyzed FBS, 1.71 µM
[31] = RPMI 5 mM glucose + 10% dialyzed FBS, 5.12 µM
[32] = RPMI 5 mM glucose + 10% dialyzed FBS, 15.4 µM
[33] = RPMI 5 mM glucose + 10% dialyzed FBS, 46.1 µM

Compound | cell viability [1] | cell viability [2] | cell viability [3] | cell viability [4] | cell viability [5] | cell viability [6] | cell viability [7] | cell viability [8] | cell viability [9] | cell viability [10] | cell viability [11] | cell viability [12] | cell viability [13] | cell viability [14] | cell viability [15] | cell viability [16] | cell viability [17] | cell viability [18] | cell viability [19] | cell viability [20] | cell viability [21] | cell viability [22] | cell viability [23] | cell viability [24] | cell viability [25] | cell viability [26] | cell viability [27] | cell viability [28] | cell viability [29] | cell viability [30] | cell viability [31] | cell viability [32] | cell viability [33]
CC(C)[N+]1(C)C2CCC1CC(OC(=O)C(CO)c1ccccc1)C2.O.[Br-] (stereo not drawn) | 98.5% | 111% | 116% | 112% | 123% | 124% | 123% | 109% | 50% | 14.1% | 7.93% | 125% | 123% | 129% | 126% | 128% | 125% | 137% | 132% | 127% | 52.5% | 13.8% | 113% | 113% | 119% | 117% | 124% | 112% | 118% | 115% | 102% | 34% | 19.3%
NC[C@H]1O[C@H](O[C@H]2[C@H](O)[C@@H](O[C@H]3O[C@H](CO)[C@@H](O)[C@H](N)[C@H]3O)[C@H](N)C[C@@H]2N)[C@H](N)C[C@@H]1O | 112% | 98.8% | 110% | 106% | 117% | 109% | 106% | 99.8% | 110% | 101% | 96.6% | 102% | 111% | 95.9% | 116% | 107% | 106% | 97.1% | 85.9% | 94% | 98.5% | 105% | 110% | 116% | 117% | 119% | 112% | 88.5% | 79.7% | 91.6% | 91% | 94.6% | 117%
CN(C)CCOc1ccc(/C(=C(/CCCl)c2ccccc2)c2ccccc2)cc1 | 102% | 110% | 107% | 107% | 106% | 112% | 111% | 88.6% | 67.2% | 59.1% | 34.9% | 108% | 109% | 112% | 108% | 109% | 102% | 103% | 83.1% | 57.9% | 50.5% | 32.2% | 102% | 107% | 112% | 111% | 109% | 102% | 112% | 80.3% | 58.1% | 44.1% | 42.7%
Nc1ccc([S+](=O)([O-])Nc2ncccn2)cc1 | 118% | 120% | 124% | 95.8% | 128% | 131% | 126% | 125% | 125% | 119% | 126% | 115% | 114% | 122% | 74.2% | 133% | 118% | 127% | 126% | 132% | 133% | 106% | – | – | – | – | – | – | – | – | – | – | –
Cc1cnc(Nc2ccc(CN3CCOCC3)cc2)nc1Nc1cccc([S+](=O)([O-])NC(C)(C)C)c1 | 80% | 81.1% | 81.2% | 82.7% | 89.1% | 80.3% | 83.6% | 77.3% | 9.27% | 3.06% | 1.03% | 81.2% | 83.3% | 83.8% | 84.9% | 87.7% | 74.2% | 67.9% | 76.2% | 22.9% | 5.69% | 3.76% | 69.9% | 84.2% | 74.6% | 81.3% | 81% | 72.6% | 75% | 71.6% | 31.2% | 6.47% | 5.08%
C1COC(NC(C2CC2)C2CC2)=N1 | 82.7% | 92% | 84.2% | 94.6% | 88.9% | 90.7% | 95.5% | 85.4% | 88.9% | 100% | 77.1% | 89.2% | 103% | 106% | 98.4% | 103% | 97.6% | 93.8% | 91.3% | 94.6% | 95.5% | 77.7% | 79.5% | 80.5% | 87.1% | 91.6% | 87.2% | 82.4% | 88.6% | 83.4% | 91.6% | 89.3% | 58.8%
Cc1cnc(Nc2ccc(N3CCN(C)CC3)cc2)nc1Nc1cccc([S+](=O)([O-])NC(C)(C)C)c1 | 133% | 104% | 109% | 121% | 118% | 109% | 103% | 90.8% | 88.7% | 10.6% | 2.36% | 112% | 120% | 119% | 120% | 124% | 111% | 117% | 91.3% | 80.2% | 16.2% | 7.55% | 108% | 115% | 114% | 113% | 106% | 107% | 102% | 92.7% | 76.6% | 48.4% | 4.62%
CC(S)C(=O)NCC(=O)O (stereo not drawn) | 106% | 110% | 118% | 109% | 119% | 101% | 129% | 117% | 118% | 113% | 106% | 109% | 112% | 108% | 119% | 116% | 115% | 114% | 126% | 115% | 109% | 106% | 108% | 105% | 111% | 118% | 112% | 112% | 113% | 113% | 113% | 120% | 102%
C1CN\2C[C@@H](\N=C2S1)C3=CC=CC=C3 | 94.4% | 105% | 99.8% | 104% | 108% | 106% | 107% | 108% | 103% | 108% | 111% | 96.3% | 105% | 96% | 93.4% | 98.7% | – | 102% | 106% | 99.8% | 103% | 105% | 87% | 93.9% | 90.1% | 94.4% | 101% | 102% | 92.7% | 98.3% | 101% | 96.8% | 90.8%
CCOC(=O)O[C@]1(C(=O)OCCl)CC[C@H]2[C@@H]3CCC4=CC(=O)C=C[C@]4(C)[C@H]3[C@@H](O)C[C@@]21C | 97.6% | 102% | 99.3% | 107% | 105% | 118% | 101% | 104% | 86.1% | 101% | 102% | 95.9% | 95.8% | 95.7% | 95% | 110% | 102% | 111% | 100% | 76% | 97.1% | 88.5% | 89% | 93.3% | 94.6% | 98.3% | 99.3% | 91.1% | 98.4% | 102% | 83.4% | 98.5% | 90.3%
N[C@@H](Cc1ccc(O)c(O)c1)C(=O)O | 122% | 124% | 118% | 119% | 130% | 123% | 127% | 122% | 125% | 131% | 121% | – | – | – | – | – | – | – | – | – | – | – | – | – | – | – | – | – | – | – | – | – | –
COc1cc2ncn(-c3cc(OCc4ccccc4C(F)(F)F)c(C(N)=O)s3)c2cc1OC | 114% | 122% | 108% | 112% | 121% | 110% | 95.2% | 45.2% | 13.8% | 11.9% | 11.8% | 117% | 112% | 121% | 112% | 110% | 111% | 115% | 71.5% | 12.2% | 11.8% | 11.1% | 113% | 111% | 111% | 112% | 123% | 109% | 103% | 85.3% | 19.5% | 17.4% | 12.8%
CCOC(=O)[C@@H](N)CCC(=O)N[C@@H](CSCc1ccccc1)C(=O)N[C@@H](C(=O)OCC)c1ccccc1 | 109% | 124% | 128% | 126% | 131% | 131% | 129% | 132% | 139% | 140% | 123% | – | – | – | – | – | – | – | – | – | – | – | – | – | – | – | – | – | – | – | – | – | –
CN1CCC(CC1)=C2C3=C(C=CC=C3)\C=C/C4=C2C=CC=C4 | 106% | 125% | 117% | 130% | 122% | 122% | 126% | 133% | 128% | 118% | 108% | – | – | – | – | – | – | – | – | – | – | – | – | – | – | – | – | – | – | – | – | – | –
CC(C)(O)C(=O)Nc1ccc([N+](=O)[O-])c(C(F)(F)F)c1 | 103% | 109% | 124% | 119% | 118% | 123% | 119% | 119% | 85.6% | 24% | 11.6% | 95.7% | 108% | 115% | 115% | 122% | 113% | 119% | 125% | 87% | 29.5% | 13.8% | 94.1% | 127% | 116% | 121% | 125% | 130% | 139% | 136% | 127% | 74.8% | 18.1%
C[C@H](Cc1ccc(O)c(O)c1)[C@@H](C)Cc1ccc(O)c(O)c1 | 115% | 114% | 120% | 122% | 118% | 116% | 117% | 116% | 114% | 87.5% | 18.1% | 125% | 130% | 123% | 128% | 130% | 126% | 118% | 125% | 115% | 75.9% | 16.3% | 124% | 121% | 119% | 118% | 124% | 120% | 109% | 114% | 115% | 70.9% | 20.6%
CC[C@H]1CN2CCc3cc(OC)c(OC)cc3[C@@H]2C[C@@H]1C[C@H]1NCCc2cc(OC)c(OC)cc21 | 111% | 116% | 108% | 103% | 92.5% | 77.1% | 39.7% | 25.7% | 28.8% | 21.1% | 16.1% | 96.8% | 107% | 104% | 102% | 93.3% | 69.4% | 28.9% | 16.6% | 14.8% | 13.4% | 11.1% | 103% | 113% | 109% | 108% | 103% | 80.3% | 56.5% | 29.6% | 19.4% | 14.1% | 13.6%
